Measurements from patent US12145947B2, “Pyrimidine based modulators and uses thereof” (Quanta Therapeutics, Inc., priority 2022, dated 2024).

Assays:
[1] = target: T1, GST-tagged KRAS-G12D (2-169) (Homo sapiens, UniProt P01116, G12D); experiment: Nucleotide exchange assay (NEA), SOS-mediated, HTRF, KRAS G12D; type: biochemical; details: IC50 extracted at 30 min
T1 construct: GST-tagged KRAS-G12D (2-169, Reaction Biology, MSC-11-539); purchased Reaction Biology MSC-11-539 (KRAS G12D); MSC-11-502 (SOS1cat)
In short: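 GST-KRAS-G12D (2-169, 5 nM final) with Tb-anti-GST donor was preincubated with compound 1 h at RT (pH 7.3 HEPES buffer, MgCl2, DTT), then SOScat (564-1049, 20 nM) and GTP-DY-647P1 (150 nM) were added. HTRF was read at RT; % inhibition vs DMSO/no-SOS blank, 4-parameter IC50 taken at 30 min.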

KRAS G12D/RAF1 = target: T2, KRAS G12D/RAF1 (Homo sapiens, UniProt P01116, G12D); experiment: Protein-protein interaction (PPI) HTRF assay KRAS G12D/RAF1; type: binding
T2 construct: His6-MBP (N, cleaved yes); made in house; host or cells: E. coli
In short: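 Biotinylated human KRAS (1-169; wt, G12D, G12V) or wt NRAS, GppNHp-loaded, pre-incubated 30 min RT with compound and streptavidin-d2, then His-RAF1 RBD (52-131) with anti-6His Tb cryptate added for 1 h RT. HTRF 665/615 ratio normalized to no compound (0%) and untagged RAF1 (100%); IC50.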

T2 sequence (P01116 with tags, fused parts or gaps isoform P01116-2 G12D): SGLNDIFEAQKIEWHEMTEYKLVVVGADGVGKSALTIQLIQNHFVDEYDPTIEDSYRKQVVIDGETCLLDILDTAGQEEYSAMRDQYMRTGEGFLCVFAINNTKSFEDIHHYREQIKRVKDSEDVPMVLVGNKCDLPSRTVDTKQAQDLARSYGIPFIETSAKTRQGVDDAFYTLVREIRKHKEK
T1 sequence (P01116 2-169 isoform P01116-2 G12D): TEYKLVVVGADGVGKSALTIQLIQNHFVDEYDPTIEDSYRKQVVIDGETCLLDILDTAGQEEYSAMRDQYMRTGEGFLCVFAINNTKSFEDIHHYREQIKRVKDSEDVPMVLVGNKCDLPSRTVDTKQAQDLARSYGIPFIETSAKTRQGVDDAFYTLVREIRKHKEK

Question: What does the source list for `N#Cc1c(N2C[C@H]3CC[C@@H](C2)N3)nc(OCc2cc(Cl)[nH]n2)nc1N1CC2(CCc3sc(N)c(C#N)c32)C1` [Compound 105, 2-amino-1′-[2-[(5-chloro-1H-pyrazol-3-yl)methoxy]-5-cyano-6-[(1R,5S)-3,8-diazabicyclo[3.2.1]octan-3-yl]pyrimidin-4-yl]spiro[5,6-dihydrocyclopenta[b]thiophene-4,3′-azetidine]-3-carbonitrile]?
Answer: IC50 ([1]; Table 4): < 10 nM; IC50 (KRAS G12D/RAF1; Table 4): 10000 to 100000 nM

Question: Which results are given for `N#Cc1c(N2C[C@H]3CC[C@@H](C2)N3)nc(OCC2(CN3CCOCC3)COC2)nc1N1CC2(CCc3sc(N)c(C#N)c32)C1` [Compound 64, 2-amino-1′-[5-cyano-2-[[3-(morpholinomethyl)oxetan-3-yl]methoxy]-6-[(1R,5S)-3,8-diazabicyclo[3.2.1]octan-3-yl]pyrimidin-4-yl]spiro[5,6-dihydrocyclopenta[b]thiophene-4,3′-azetidine]-3-carbonitrile]?
Answer: IC50 ([1]; Table 4): < 10 nM; IC50 (KRAS G12D/RAF1; Table 4): 1000 to 10000 nM

Question: How did the IC50 ([1]; Table 4) turn out when `N#Cc1c(N2C[C@H]3CC[C@@H](C2)N3)nc(OCC2(CN3CCOCC3)CC2)nc1N1CC2(CCc3sc4[nH]cnc(=O)c4c32)C1` [Compound 39, 2-[[1-(morpholinomethyl)cyclopropyl]methoxy]-4-(12-oxospiro[7-thia-9,11-diazatricyclo[6.4.0.02,6]dodeca-1(8), 2(6), 10-triene-3,3′-azetidine]-1′-yl)-6-[(1R,5S)-3,8-diazabicyclo[3.2.1]octan-3-yl]pyrimidine-5-carbonitrile] was run?
Answer: Its IC50 is 100 to 1000 nM.

Question: What about the IC50 (KRAS G12D/RAF1; Table 4) of the same compound?
Answer: Its IC50 is over 100000 nM.

Question: `N#Cc1c(N2C[C@H]3CC[C@@H](C2)N3)nc(OCC2(CN3CCC(F)(F)CC3)CC2)nc1N1CC2(CCCc3sc(N)c(C#N)c32)C1` [Compound 56, 2-amino-1′-[5-cyano-6-[(1R,5S)-3,8-diazabicyclo[3.2.1]octan-3-yl]-2-[[1-[(4,4-difluoro-1-piperidyl)methyl]cyclopropyl]methoxy]pyrimidin-4-yl]spiro[6,7-dihydro-5H-benzothiophene-4,3′-azetidine]-3-carbonitrile] was tested. Which IC50 ([1]; Table 4) did it give?
Answer: The IC50 was under 10 nM.

Question: And the IC50 (KRAS G12D/RAF1; Table 4)?
Answer: Its IC50 is 100 to 1000 nM.

Question: With `CN1CCC[C@H]1COc1nc(N2C[C@H]3CC[C@@H](C2)N3)c(C#N)c(N2CC3(CCc4sc(N)c(C#N)c43)C2)n1` [Compound 83, 2-amino-1′-[5-cyano-6-[(1R,5S)-3,8-diazabicyclo[3.2.1]octan-3-yl]-2-[[(2S)-1-methylpyrrolidin-2-yl]methoxy]pyrimidin-4-yl]spiro[5,6-dihydrocyclopenta[b]thiophene-4,3′-azetidine]-3-carbonitrile] as the compound, how does the IC50 ([1]; Table 4) read?
Answer: The IC50 was under 10 nM.

Question: What about the IC50 (KRAS G12D/RAF1; Table 4) of the same compound?
Answer: The IC50 was 100 to 1000 nM.

Question: What does the source list for `Oc1ccc2c(c1)-c1ccccc1C21CN(c2cc(N3C[C@H]4CC[C@@H](C3)N4)nc(OC[C@@]34CCCN3C[C@H](F)C4)n2)C1` [Compound 1, 1-[6-[(1R,5S)-3,8-diazabicyclo[3.2.1]octan-3-yl]-2-[[(2R,8S)-2-fluoro-1,2,3,5,6,7-hexahydropyrrolizin-8-yl]methoxy]pyrimidin-4-yl]spiro[azetidine-3,9′-fluorene]-3′-ol]?
Answer: IC50 ([1]; Table 2): 100 to 1000 nM; IC50 ([1]; Table 4): 100 to 1000 nM; IC50 (KRAS G12D/RAF1; Table 2): 10000 to 100000 nM; IC50 (KRAS G12D/RAF1; Table 4): 10000 to 100000 nM

Question: `N#Cc1c(N2C[C@H]3CC[C@@H](C2)N3)nc(OCc2cn[nH]n2)nc1N1CC2(CCc3sc(N)c(C#N)c32)C1` [Compound 103, 2-amino-1′-[5-cyano-6-[(1R,5S)-3,8-diazabicyclo[3.2.1]octan-3-yl]-2-(2H-triazol-4-ylmethoxy)pyrimidin-4-yl]spiro[5,6-dihydrocyclopenta[b]thiophene-4,3′-azetidine]-3-carbonitrile] was tested. Which IC50 ([1]; Table 4) did it give?
Answer: Its IC50 is 10 to 100 nM.

Question: And the IC50 (KRAS G12D/RAF1; Table 4)?
Answer: Its IC50 is 10000 to 100000 nM.

Question: Which results are given for `N#CNC1CCCN(c2nc(OC[C@@]34CCCN3C[C@H](F)C4)nc(N3CC4(CCc5sc(N)c(C#N)c54)C3)c2F)C1` (stereo partly drawn) [Compound 54, [1-[6-(2-amino-3-cyano-spiro[5,6-dihydrocyclopenta[b]thiophene-4,3′-azetidine]-1′-yl)-5-fluoro-2-[[(2R,8S)-2-fluoro-1,2,3,5,6,7-hexahydropyrrolizin-8-yl]methoxy]pyrimidin-4-yl]-3-piperidyl]cyanamide]?
Answer: IC50 ([1]; Table 4): 100 to 1000 nM; IC50 (KRAS G12D/RAF1; Table 4): 100 to 1000 nM

Question: What does the source list for `C[C@@]1(O)CCCN(c2nc(OC[C@@]34CCCN3C[C@H](F)C4)nc(N3CC4(CCc5sc(N)c(C#N)c54)C3)c2F)C1` [Compound 6, 2-amino-1′-[5-fluoro-2-[[(2R,8S)-2-fluoro-1,2,3,5,6,7-hexahydropyrrolizin-8-yl]methoxy]-6-[(3R)-3-hydroxy-3-methyl-1-piperidyl]pyrimidin-4-yl]spiro[5,6-dihydrocyclopenta[b]thiophene-4,3′-azetidine]-3-carbonitrile]?
Answer: IC50 ([1]; Table 4): 100 to 1000 nM; IC50 (KRAS G12D/RAF1; Table 4): 10000 to 100000 nM
